Measured values as given in US20150065436A1, “INHIBITING INTERACTION BETWEEN HIF-1ALPHA AND p300/CBP WITH HYDROGEN BOND SURROGATE-BASED HELICES” (UNIVERSITY OF SOUTHERN CALIFORNIA, priority 2013, published 2015).

Assays:
[1] = test system: HIF-1α; test: Western blot analysis of HIF-1α levels; type: cell-based, human; conditions: HeLa cells, 10 μM, hypoxia mimicked with DFO 300 μM
Description: HeLa cells were plated in a 75 cm^2 culture flask and allowed to reach 70% confluence. Cells were treated with vehicle or HBS 1 at 10 μM concentration in the cell culture media containing 10% FBS. […] Cells were incubated for 6 hours and hypoxia was induced with 300 μM. DFO. After incubation for an additional 18 hours, cells were lysed and cytoplasmic and nuclear extracts were collected using a NE-PER kit (Pierce) according to the manufacturer's protocol and blotted as described in Dubey et al., “Suppression of Tumor Growth by Designed Dimeric Epidithiodiketopiperazine Targeting Hypoxia-Inducible Transcription Factor Complex,” J. Am. Chem. Soc. 135(11):4537-49 (2013), which is hereby incorporated by reference in its entirety.
To exclude the possibility that the observed down-regulation in the expression of hypoxia-inducible genes was due to a change in the levels of HIF-1α protein itself, a western blot analysis of HIF-1α was performed in hypoxic cells treated with HBS 1. […] As expected, the levels of induced HIF-1α protein were unaffected by treatment with HBS 1 (FIG. 16).

[2] = molecular target: T1, 15N-labelled p300-CH1 (Homo sapiens, UniProt Q09472); test: 1H-15N HSQC NMR titration; type: binding; conditions: 69 μM CH1, CH1:HBS 1 ratios 1:1, 1:3, 1:5, 1:10
T1 construct: human p300 CH1 domain (amino acid residues 323-423); GST (cleaved yes); made in house; host or cells: E. coli BL21 (DE3)
Description: Protein samples were prepared as described above. Uniformly ^15N-labelled p300-CH1 was concentrated to 69 μM in NMR buffer (10 mM Tris pH 8, 50 mM NaCl, 2 mM DTT, and 207 μM ZnSO4) using a 3 kDa MWCO Amicon Ultra centrifugal filter (Millipore) and supplemented with 5% D2O. For HSQC titration experiments, data was collected on a 600 MHz Bruker four-channel NMR system at 25° C. and analyzed with the TopSpin software (Bruker). For Zn^2+ experiments, data were collected on Agilent 600 MHz at 25° C. and analyzed using Sparky3 (Univ. of California).
For the HSQC titration experiments, five and ten molar equivalents of HBS 1 in DMSO were added to ^15N-labelled p300-CH1, and the data were collected as described above. Mean chemical shift difference (ΔδNH) observed for ^1H and ^15N nuclei of various resonances were calculated as described in Williamson, “Using Chemical Shift Perturbation to Characterise Ligand Binding,” Prog. Nucl. Mag. Resonance Spectr. […]
To further characterize the interaction of HBS 1 with the CH1 domain, ^1H-^15N HSQC NMR titration experiments were performed with uniformly ^15N-labeled CH1. […] This cleft includes Trp403 and chemical shift perturbations observed for this residue support the results of the fluorescence titration experiments. […]

[3] = Plasma stability and biodistribution study; type: in vivo; conditions: 1 mg/kg intravenously, female BALB/c mice
Description: Plasma stability and biodistribution studies were performed in 10-week-old female BALB/c mice (Charles River) with 3 mice per time point. Briefly, HBS 1 or peptide 3 was dissolved in 70 μL of sterile PBS and administered intravenously at a dose of 1 mg/kg. Then, 1 mL of blood was collected by cardiac puncture at euthanasia at the following time points: 30 min., 1 h., 2 h., 4 h., 6 h., 8 h., 12 h., 16 h., and 24 h. after drug administration. The experiments were performed under an approved IACUC protocol at the University of Southern California.
Samples were prepared by mixing 30 μL of plasma with 20 μL of 50% MeOH and 50% aqueous 1% formic acid. The mixture was vortexed and mixed with an additional 120 μL of 0.5% formic acid in MeOH/ACN (4:6) and 20 μL of 2.0 μg/mL isoproterenol in MeOH/1% aqueous formic acid (1:1) as an internal standard. The mixture was vortexed again for 2 minutes and centrifuged at 13,000 rpm for 4 minutes. Next, 20 μL of the supernatant was transferred to a new tube and mixed with 180 μL of 50% MeOH/ACN (4:6) and 50% aqueous 1% formic acid. Standard curves were prepared by mixing the plasma from three untreated mice with 20 μL of 50% MeOH and 50% aqueous 1% formic acid prepared with HBS 1 or peptide 3 at a concentration range of 0.05-2 μg/mL.
Samples were analyzed by LC/MS/MS using an Agilent 6210 time-of-flight LC/MS system. HPLC separation was achieved using a Prevail 3u C18 100×2.1 mm column (Grace Davison, Deerfield, Ill., USA). The column temperature was maintained at 20° C. The mobile phase consisted of A (5% acetonitrile and 95% of 0.05% aqueous formic acid) and B (5% of 05% aqueous formic acid and 95% acetonitrile). The following gradient program was used: 0% B (0 min, 0.125 ml/min), 100% B (17 min, 0.125 ml/min). The total run time was 35 minutes. […]
A mouse xenograft tumor model was used to assess the in vivo efficacy of HBS 1. The relative plasma stabilities of HBS 1 and linear peptide 3 in mice were first measured. […]

T1 sequence (Q09472 323-423): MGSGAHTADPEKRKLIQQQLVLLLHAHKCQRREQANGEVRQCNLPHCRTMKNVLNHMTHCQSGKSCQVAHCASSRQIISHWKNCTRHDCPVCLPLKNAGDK

## CC(C)C[C@H](NC(=O)[C@H](C)NC(=O)[C@H](CCCNC(=N)N)NC(=O)[C@H](C)N1CC=CCCC(=O)N[C@@H](CCC(=O)O)C(=O)N[C@@H](CC(C)C)C1=O)C(=O)N[C@@H](CC(=O)O)C(=O)N[C@@H](CCC(N)=O)C(N)=O [HBS 1, XELA*RALDQ-NH2]
[1]
  levels of induced HIF-1α protein: unaffected
[2]
  shift in CH1 resonances on addition of compound: concentration-dependent shift in the resonances of several CH1 residues
[3]
  pattern of plasma decay: bi-exponential pattern of decay
[3]; 30 min to 24 h
  plasma concentrations over the same time intervals: much higher concentrations as compared to peptide 3
